Patent US20160289186A1, “FLUOROMETHYL-SUBSTITUTED PYRROLE CA[…]” (Grunenthal GmbH, priority 2013, published 2016)

Target: T1, Human CaV2.2 channels (Homo sapiens, UniProt Q00975)
T1 construct: expressed in transfected cells; host or cells: HEK293
Test: Fluorescent (FLIPR) assay for CaV2.2 channels using potassium depolarization to induce channel opening
Type: cell-based
Conditions: 3 μM compound; 30 mM KCl assay buffer (inactivated channel state); HEK293 cells stably expressing human CaV2.2; read-out: Activity Category: %-Inhib (CaV2.2) @3 μM @30 mM KCl
Excerpt: In the process, the Ca^2+ influx is quantified in the FLIPR assay with the aid of a Ca^2+-sensitive dye (type Fluo-4, Molecular Probes Europe BV, Leiden, the Netherlands) in a fluorescent imaging plate reader (FLIPR 3, Molecular Devices, Sunnyvale, USA), as described hereinafter.
Human CaV2.2 channels were stably expressed in HEK293 cells together with alpha2-delta and beta subunits of voltage gated calcium channels. In addition, an inwardly rectifying potassium channel (Kir2.3) was stably expressed in these cells to augment control of the cell membrane potential by the concentration of extracellular potassium ions. Raise of the extracellular potassium concentration leads to depolarization of the membrane potential and thus regulates the voltage dependent state of CaV2.2 channels. For preparation, cells were seeded in black poly-D-lysine coated 96-well plates (Becton Dickinson, Biocoat 4640) in 100 μL medium [500 mL DMEM/F-12 plus Glutamax (Invitrogen 31331-093) plus 5.5 mL MEM NEAA 100× (Invitrogen 11140-035) plus 50 mL FBS decomplemented (Invitrogen 10270-106) plus 200 μg/mL Geneticin (Invitrogen 10131-027) plus 50 μg/mL Hygromycin B (Invitrogen 10687-010) plus 2 μg/mL Blasticidin (anti-bl5b Invivo-Gen) plus 0.2 μg/mL Puromycin (A 11138-03)] at a cell density of 30.000 cells per well. Plates were incubated at 37° C. (5% CO2) for 20 to 23 h. On the day of experiment medium was discarded and cells were loaded with Fluo 4 by addition of 100 μL of basic assay buffer (10 mM HEPES, 1 mM KCl, 149 mM NaCl, 0.8 mM CaCl2, 1.7 mM MgCl2, 10 mM Glucose, 0.1% BSA. pH 7.4) containing 2 μM Fluo 4 (Molecular Probes; F-14201), 0.01% pluronic acid (Molecular Probes; P-6866) and 2.5 mM probenecid (Molecular Probes; P36400). Cells were incubated in the dark at 25° C. for 60 min. Then dye containing buffer was discarded and 100 μL basic (1 mM KCl) or alternative (30 mM KCl) assay buffer was added. The alternative assay buffer contained altered concentrations of KCl (30 mM) and NaCl (120 mM) and was used in order to promote the inactivated channel state. After that 25 μL of basic or alternative assay buffer with or without test compound were added and cells were incubated again in the dark at 25° C. for 15 min. Fluorescence intensity was measured on a FLIPR 3 instrument (Molecular Devices Corp., Sunnyvale, Calif.) with excitation at 480 nm and emission at 535 nm. After continuously reading fluorescence for 30 sec, 50 μL of basic assay buffer containing 210 mM KCl (NaCl omitted) were added for depolarization. Peak fluorescent signal intensity was determined and the amplitude of the peak signal, normalized to base line, was used to measure channel inhibition by test compounds.

T1 sequence (Q00975 whole entry): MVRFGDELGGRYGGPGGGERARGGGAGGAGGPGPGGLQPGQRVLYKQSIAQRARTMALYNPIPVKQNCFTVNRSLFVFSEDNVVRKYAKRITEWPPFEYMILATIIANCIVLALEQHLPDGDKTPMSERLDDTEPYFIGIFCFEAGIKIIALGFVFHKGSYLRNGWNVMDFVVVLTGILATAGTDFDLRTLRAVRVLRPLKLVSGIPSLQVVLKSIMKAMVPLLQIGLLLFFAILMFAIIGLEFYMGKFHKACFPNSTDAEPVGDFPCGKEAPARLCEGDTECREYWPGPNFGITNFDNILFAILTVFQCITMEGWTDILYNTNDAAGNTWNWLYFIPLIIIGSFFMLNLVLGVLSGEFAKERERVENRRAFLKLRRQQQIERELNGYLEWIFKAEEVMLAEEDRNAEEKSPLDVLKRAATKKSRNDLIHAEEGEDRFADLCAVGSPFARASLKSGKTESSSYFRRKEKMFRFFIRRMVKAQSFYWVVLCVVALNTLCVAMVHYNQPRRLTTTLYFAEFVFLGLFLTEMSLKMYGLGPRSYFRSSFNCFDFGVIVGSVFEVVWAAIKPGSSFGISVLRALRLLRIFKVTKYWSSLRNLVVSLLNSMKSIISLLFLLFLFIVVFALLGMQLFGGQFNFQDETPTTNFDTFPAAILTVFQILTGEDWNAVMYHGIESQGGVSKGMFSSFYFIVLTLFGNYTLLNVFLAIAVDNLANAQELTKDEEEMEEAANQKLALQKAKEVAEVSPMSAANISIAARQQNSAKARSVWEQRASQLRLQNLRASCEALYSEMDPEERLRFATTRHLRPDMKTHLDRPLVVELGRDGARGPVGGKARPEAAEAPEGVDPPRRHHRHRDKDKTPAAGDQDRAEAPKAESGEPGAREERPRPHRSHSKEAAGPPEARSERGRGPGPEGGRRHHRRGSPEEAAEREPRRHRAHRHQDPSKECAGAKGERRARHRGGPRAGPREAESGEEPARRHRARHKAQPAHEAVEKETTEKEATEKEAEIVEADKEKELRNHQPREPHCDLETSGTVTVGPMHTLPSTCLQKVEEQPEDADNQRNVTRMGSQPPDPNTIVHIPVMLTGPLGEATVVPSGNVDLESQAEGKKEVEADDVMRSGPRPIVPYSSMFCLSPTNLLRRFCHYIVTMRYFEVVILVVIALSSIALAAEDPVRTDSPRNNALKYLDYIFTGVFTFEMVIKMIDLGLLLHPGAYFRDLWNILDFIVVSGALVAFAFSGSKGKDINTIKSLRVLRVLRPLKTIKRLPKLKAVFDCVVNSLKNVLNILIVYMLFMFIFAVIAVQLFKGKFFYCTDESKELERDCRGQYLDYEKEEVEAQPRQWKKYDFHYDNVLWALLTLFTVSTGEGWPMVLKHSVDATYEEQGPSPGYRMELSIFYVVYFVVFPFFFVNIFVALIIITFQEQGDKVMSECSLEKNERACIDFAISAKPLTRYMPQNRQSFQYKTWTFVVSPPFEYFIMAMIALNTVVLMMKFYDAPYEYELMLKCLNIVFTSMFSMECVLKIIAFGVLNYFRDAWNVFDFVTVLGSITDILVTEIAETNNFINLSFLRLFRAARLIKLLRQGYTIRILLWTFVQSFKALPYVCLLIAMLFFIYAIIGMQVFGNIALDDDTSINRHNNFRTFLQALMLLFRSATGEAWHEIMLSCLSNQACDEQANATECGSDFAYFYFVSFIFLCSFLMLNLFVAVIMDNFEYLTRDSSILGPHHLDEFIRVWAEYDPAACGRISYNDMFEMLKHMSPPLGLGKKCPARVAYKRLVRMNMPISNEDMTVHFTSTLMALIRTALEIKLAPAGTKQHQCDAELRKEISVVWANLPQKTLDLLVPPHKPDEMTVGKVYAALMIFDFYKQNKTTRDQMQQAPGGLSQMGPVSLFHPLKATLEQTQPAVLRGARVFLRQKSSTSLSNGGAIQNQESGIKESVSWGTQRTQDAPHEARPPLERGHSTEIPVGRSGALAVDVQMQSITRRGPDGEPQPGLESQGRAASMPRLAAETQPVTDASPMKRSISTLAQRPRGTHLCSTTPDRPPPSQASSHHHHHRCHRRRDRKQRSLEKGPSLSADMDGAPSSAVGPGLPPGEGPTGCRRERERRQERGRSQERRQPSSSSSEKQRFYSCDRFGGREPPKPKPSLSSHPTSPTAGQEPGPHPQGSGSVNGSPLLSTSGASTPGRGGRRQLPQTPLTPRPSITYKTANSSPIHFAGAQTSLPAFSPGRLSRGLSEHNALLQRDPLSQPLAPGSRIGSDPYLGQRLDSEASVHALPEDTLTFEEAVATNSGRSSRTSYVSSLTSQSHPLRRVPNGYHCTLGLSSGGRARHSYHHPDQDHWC
T1 sequence (P54284 whole entry, further chain): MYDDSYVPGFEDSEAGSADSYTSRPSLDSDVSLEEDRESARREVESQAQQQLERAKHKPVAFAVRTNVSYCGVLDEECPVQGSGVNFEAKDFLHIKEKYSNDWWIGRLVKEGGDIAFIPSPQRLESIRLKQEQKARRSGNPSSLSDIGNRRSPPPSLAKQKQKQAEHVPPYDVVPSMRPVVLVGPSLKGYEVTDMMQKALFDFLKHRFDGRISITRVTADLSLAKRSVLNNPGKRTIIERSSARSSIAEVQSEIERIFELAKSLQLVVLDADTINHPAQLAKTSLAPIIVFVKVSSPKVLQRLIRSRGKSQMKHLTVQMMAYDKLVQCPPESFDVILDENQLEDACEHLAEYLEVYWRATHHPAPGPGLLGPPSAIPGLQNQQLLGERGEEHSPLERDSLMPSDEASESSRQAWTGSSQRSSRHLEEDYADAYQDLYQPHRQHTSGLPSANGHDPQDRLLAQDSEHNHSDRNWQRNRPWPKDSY
T1 sequence (P54289 25-1103, further chain): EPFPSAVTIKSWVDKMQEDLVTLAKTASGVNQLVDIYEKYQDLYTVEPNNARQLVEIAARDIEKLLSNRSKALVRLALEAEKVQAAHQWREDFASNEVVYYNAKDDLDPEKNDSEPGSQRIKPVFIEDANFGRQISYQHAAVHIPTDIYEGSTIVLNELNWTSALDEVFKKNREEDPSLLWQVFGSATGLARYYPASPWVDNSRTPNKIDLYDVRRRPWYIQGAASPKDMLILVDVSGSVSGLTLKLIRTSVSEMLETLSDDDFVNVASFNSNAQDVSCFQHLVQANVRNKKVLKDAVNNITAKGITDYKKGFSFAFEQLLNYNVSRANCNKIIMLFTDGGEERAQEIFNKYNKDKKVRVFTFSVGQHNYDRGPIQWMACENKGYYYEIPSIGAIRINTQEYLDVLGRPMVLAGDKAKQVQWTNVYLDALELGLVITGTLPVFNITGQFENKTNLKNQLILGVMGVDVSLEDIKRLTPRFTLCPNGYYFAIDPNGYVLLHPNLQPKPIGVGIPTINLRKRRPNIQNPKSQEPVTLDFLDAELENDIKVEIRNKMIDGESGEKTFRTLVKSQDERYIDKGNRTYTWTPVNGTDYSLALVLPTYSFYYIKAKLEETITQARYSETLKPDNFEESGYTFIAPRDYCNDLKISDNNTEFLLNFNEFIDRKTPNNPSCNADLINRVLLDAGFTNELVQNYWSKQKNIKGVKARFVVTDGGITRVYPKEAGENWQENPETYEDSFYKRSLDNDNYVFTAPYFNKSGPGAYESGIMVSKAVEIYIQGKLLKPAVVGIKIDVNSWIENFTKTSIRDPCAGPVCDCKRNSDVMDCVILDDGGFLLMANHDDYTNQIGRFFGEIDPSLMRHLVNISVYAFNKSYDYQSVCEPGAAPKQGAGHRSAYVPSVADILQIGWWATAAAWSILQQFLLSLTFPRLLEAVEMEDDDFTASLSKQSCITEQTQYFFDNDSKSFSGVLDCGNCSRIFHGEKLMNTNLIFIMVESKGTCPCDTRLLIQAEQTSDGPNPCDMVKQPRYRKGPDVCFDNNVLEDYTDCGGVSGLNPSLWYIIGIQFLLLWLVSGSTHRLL

| SMILES | inhibition at 3 µM |
| --- | --- |
| Cc1c(-c2ccc(Cl)cc2)c(C(=O)N2CC(O)C2)n(C2CC2)c1C(F)(F)F [Example 025, [3-(4-Chlorophenyl)-1-cyclopropyl-4-methyl-5-(trifluoromethyl)-1H-pyrrol-2-yl]-(3-hydroxy-azetidin-1-yl)-methanone] | 75 to 95% |
| O=C(c1c(-c2ccc(Cl)cc2)cc(C(F)(F)F)n1C1CC1)N1CC(O)C1 [Example 026, [3-(4-Chlorophenyl)-1-cyclopropyl-5-(trifluoromethyl)-1H-pyrrol-2-yl]-(3-hydroxy-azetidin-1-yl)-methanone] | 40 to 75% |
| Cc1noc(C2CCN(C(=O)c3c(-c4ccc(Cl)cc4)c(C)c(C(F)(F)F)n3C3CC3)CC2)n1 [Example 027, [3-(4-Chlorophenyl)-1-cyclopropyl-4-methyl-5-(trifluoromethyl)-1H-pyrrol-2-yl]-[4-(3-methyl-[1,2,4]oxadiazol-5-yl)-piperidin-1-yl]-methanone] | 75 to 95% |
| Cc1noc(C2CCN(C(=O)c3c(-c4ccc(Cl)cc4F)c(C)c(C(F)(F)F)n3C3CC3)CC2)n1 [Example 028, [3-(4-Chloro-2-fluoro-phenyl)-1-cyclopropyl-4-methyl-5-(trifluoromethyl)-1H-pyrrol-2-yl]-[4-(3-methyl-[1,2,4]oxadiazol-5-yl)-piperidin-1-yl]-methanone] | 75 to 95% |
| Cc1noc(C2CCN(C(=O)c3c(-c4ccc(Cl)cc4)cc(C(F)(F)F)n3C3CC3)CC2)n1 [Example 029, [3-(4-Chlorophenyl)-1-cyclopropyl-5-(trifluoromethyl)-1H-pyrrol-2-yl]-[4-(3-methyl-[1,2,4]oxadiazol-5-yl)-piperidin-1-yl]-methanone] | 75 to 95% |
| Cc1c(-c2ccc(Cl)cc2)c(C(=O)N2CCOC(C)(C)C2)n(C2CC2)c1C(F)(F)F [Example 032, [3-(4-Chlorophenyl)-1-cyclopropyl-4-methyl-5-(trifluoromethyl)-1H-pyrrol-2-yl]-(2,2-dimethyl-morpholin-4-yl)-methanone] | > 95% |
| Cc1c(-c2ccc(Cl)cc2F)c(C(=O)N2CCOC(C)(C)C2)n(C2CC2)c1C(F)(F)F [Example 033, [3-(4-Chloro-2-fluoro-phenyl)-1-cyclopropyl-4-methyl-5-(trifluoromethyl)-1H-pyrrol-2-yl]-(2,2-dimethyl-morpholin-4-yl)-methanone] | 75 to 95% |
| CC1(C)CN(C(=O)c2c(-c3ccc(Cl)cc3)cc(C(F)(F)F)n2C2CC2)CCO1 [Example 034, [3-(4-Chlorophenyl)-1-cyclopropyl-5-(trifluoromethyl)-1H-pyrrol-2-yl]-(2,2-dimethyl-morpholin-4-yl)-methanone] | 75 to 95% |
| CN(CC(C)(C)C)C(=O)c1c(-c2ccc(Cl)cc2)cc(C(F)(F)F)n1C1CC1 [Example 035, 3-(4-Chlorophenyl)-1-cyclopropyl-N-(2,2-dimethyl-propyl)-N-methyl-5-(trifluoromethyl)-1H-pyrrole-2-carboxylic acid amide] | 40 to 75% |
| CN(CC(C)(C)CO)C(=O)c1c(-c2ccc(Cl)cc2)cc(C(F)(F)F)n1C1CC1 [Example 036, 3-(4-Chlorophenyl)-1-cyclopropyl-N-(3-hydroxy-2,2-dimethyl-propyl)-N-methyl-5-(trifluoromethyl)-1H-pyrrole-2-carboxylic acid amide] | 75 to 95% |
| CN(CCS(C)(=O)=O)C(=O)c1c(-c2ccc(Cl)cc2)cc(C(F)(F)F)n1C1CC1 [Example 037, 3-(4-Chlorophenyl)-1-cyclopropyl-N-methyl-N-(2-methylsulfonyl-ethyl)-5-(trifluoromethyl)-1H-pyrrole-2-carboxylic acid amide] | 40 to 75% |
| O=C(c1c(-c2ccc(Cl)cc2)cc(C(F)(F)F)n1C1CC1)N1CCOCC1 [Example 038, [3-(4-Chlorophenyl)-1-cyclopropyl-5-(trifluoromethyl)-1H-pyrrol-2-yl]-morpholin-4-yl-methanone] | 40 to 75% |
| Cc1c(-c2ccc(Cl)cc2)c(C(=O)N(C)CC(C)(C)C)n(C2CC2)c1C(F)(F)F [Example 039, 3-(4-Chlorophenyl)-1-cyclopropyl-N-(2,2-dimethyl-propyl)-N,4-dimethyl-5-(trifluoromethyl)-1H-pyrrole-2-carboxylic acid amide] | 75 to 95% |
| Cc1c(-c2ccc(Cl)cc2)c(C(=O)N(C)CC(C)(C)CO)n(C2CC2)c1C(F)(F)F [Example 040, 3-(4-Chlorophenyl)-1-cyclopropyl-N-(3-hydroxy-2,2-dimethyl-propyl)-N,4-dimethyl-5-(trifluoromethyl)-1H-pyrrole-2-carboxylic acid amide] | 75 to 95% |
| Cc1c(-c2ccc(Cl)cc2)c(C(=O)N(C)CCS(C)(=O)=O)n(C2CC2)c1C(F)(F)F [Example 041, 3-(4-Chlorophenyl)-1-cyclopropyl-N,4-dimethyl-N-(2-methylsulfonyl-ethyl)-5-(trifluoromethyl)-1H-pyrrole-2-carboxylic acid amide] | 75 to 95% |
| Cc1c(-c2ccc(Cl)cc2)c(C(=O)N2CCOC(C)(C)C2)n(C2CCC2)c1C(F)(F)F [Example 042, [3-(4-Chlorophenyl)-1-cyclobutyl-4-methyl-5-(trifluoromethyl)-1H-pyrrol-2-yl]-(2,2-dimethyl-morpholin-4-yl)-methanone] | 75 to 95% |
| Cc1c(-c2ccc(Cl)cc2)c(C(=O)N2CCOCC2)n(C2CC2)c1C(F)(F)F [Example 043, [3-(4-Chlorophenyl)-1-cyclopropyl-4-methyl-5-(trifluoromethyl)-1H-pyrrol-2-yl]-morpholin-4-yl-methanone] | 75 to 95% |
| Cc1c(-c2ccc(Cl)cc2)c(C(=O)N2CCS(=O)(=O)C(C)(C)C2)n(C2CC2)c1C(F)(F)F [Example 044, [3-(4-Chlorophenyl)-1-cyclopropyl-4-methyl-5-(trifluoromethyl)-1H-pyrrol-2-yl]-(2,2-dimethyl-1,1-dioxo-[1,4]thiazinan-4-yl)-methanone] | 75 to 95% |
| CC(C)Cn1c(C(F)(F)F)cc(-c2ccc(F)cc2)c1C(=O)N1CCOC(C)(C)C1 [Example 045, (2,2-Dimethyl-morpholin-4-yl)-[3-(4-fluorophenyl)-1-(2-methyl-propyl)-5-(trifluoromethyl)-1H-pyrrol-2-yl]-methanone] | 75 to 95% |
| CC(C)Cn1c(C(F)(F)F)cc(-c2ccc(F)cc2)c1C(=O)N(C)C1CCOCC1 [Example 046, 3-(4-Fluorophenyl)-N-methyl-1-(2-methyl-propyl)-N-tetrahydro-pyran-4-yl-5-(trifluoromethyl)-1H-pyrrole-2-carboxylic acid amide] | > 95% |
| Cc1cc(CN(C)C(=O)c2c(-c3ccc(F)cc3)cc(C(F)(F)F)n2CC(C)C)no1 [Example 047, 3-(4-Fluorophenyl)-N-methyl-N-[(5-methyl-isoxazol-3-yl)-methyl]-1-(2-methyl-propyl)-5-(trifluoromethyl)-1H-pyrrole-2-carboxylic acid amide] | > 95% |
| Cc1c(-c2ccc(Cl)cc2)c(C(=O)N(C)Cc2ccncn2)n(CC(C)C)c1C(F)(F)F [Example 048, 3-(4-Chlorophenyl)-N,4-dimethyl-1-(2-methyl-propyl)-N-(pyrimidin-4-yl-methyl)-5-(trifluoromethyl)-1H-pyrrole-2-carboxylic acid amide] | > 95% |
| Cc1cnc(CN(C)C(=O)c2c(-c3ccc(F)cc3)cc(C(F)(F)F)n2CC(C)C)cn1 [Example 049, 3-(4-Fluorophenyl)-N-methyl-1-(2-methyl-propyl)-N-[(5-methyl-pyrazin-2-yl)-methyl]-5-(trifluoromethyl)-1H-pyrrole-2-carboxylic acid amide] | > 95% |
| CC(C)Cn1c(C(F)(F)F)cc(-c2ccc(F)cc2)c1C(=O)N(C)CCS(C)(=O)=O [Example 050, 3-(4-Fluorophenyl)-N-methyl-1-(2-methyl-propyl)-N-(2-methylsulfonyl-ethyl)-5-(trifluoromethyl)-1H-pyrrole-2-carboxylic acid amide] | 75 to 95% |
